# In publication PMC4741798, “Imaging of carbonic anhydrase IX with an ^111In-labeled dual-motif inhibitor” (Oncotarget, 2015):
# Several values for one entry are separate records, joined by “and”; a condition that tells them apart may be missing. Equal values may be shown once. Entries after “also recorded” stand apart in the source; their conditions may differ.
# What was measured:
# SK-RC-52 xenografts = assay: Biodistribution in mice bearing SK-RC-52 xenografts; assay type: in vivo; settings: for Tumor/mm (muscle) ratio / Biodistribution: Tumor / Biodistribution: Bladder / Biodistribution: Blood / Biodistribution: Brain / Biodistribution: Fat / Biodistribution: Heart / Biodistribution: Kidney (kid) / Biodistribution: Liver / Biodistribution: Lung / Biodistribution: Muscle (mm) / Biodistribution: Pancreas / Biodistribution: Sm. intestine / Biodistribution: Spleen / Biodistribution: Stomach / Tumor/blood ratio / Tumor/kid (kidney) ratio: n = 5; for Biodistribution: Tumor: SK-RC-52 tumor
# Procedure: Mice bearing SK-RC-52 xenografts within the lower left flank were injected intravenously with 740 kBq (20 μCi) of [^111In]XYIMSR-01 in 200 μL of PBS. For in vivo competition (binding specificity) studies, tumor-bearing mice were injected with 740 kBq (20 μCi) of [^111In]XYIMSR-01 and 200 nmole of 1 in 200 μL of PBS concurrently. At 1 h, 4 h, 8 h, 24 h and 48 h post-injection, mice were sacrificed by cervical dislocation and the blood was immediately collected by cardiac puncture. Heart, lungs, pancreas, spleen, fat, brain, muscle, small intestines, liver, stomach, kidney, urinary bladder, and tumor were collected. Each organ was weighed and the tissue radioactivity was measured with an automated gamma counter (1282 Compugamma CS, Pharmacia/LKBNuclear, Inc., Mt. Waverly, Vic. Australia). The percentage of injected dose per gram of tissue (% ID/g) was calculated by comparison with samples of a standard dilution of the initial dose. All measurements were corrected for radioactive decay.
# Data were expressed as mean ± standard deviation (SD). Prism software (GraphPAD, San Diego, California) was used to determine statistical significance. Statistical significance was calculated using a paired t test. P-values < 0.0001 were considered significant.
# [1] = tested on: CAIX-expressing SK-RC-52 tumors; assay: SPECT/CT imaging of mice with SK-RC-52 tumors; assay type: in vivo; settings: 14.8 MBq via tail vein
# Procedure: Mice harboring subcutaneous SK-RC-52 tumors with the lower left flank were injected with 14.8 MBq (400 μCi) of [^111In]XYIMSR-01 in 250 μL of PBS (pH = 7.0) intravenously (tail vein). Anesthesia was then induced with 3% isofluorane and maintained at 2% isoflurane. Physiologic temperature was maintained with an external light source while the mouse was on the gantry. Imaging employed a CT-equipped Gamma Medica-Ideas SPECT scanner (Northridge, CA). SPECT data were acquired in 64 projections at 65 s per projection using medium energy pinhole collimators. A CT scan was performed in 512 projections at the end of each SPECT scan for anatomic co-registration. CT and SPECT scans were performed at 1, 4, 8, 24, and 48 h post-injection of [^111In]XYIMSR-01. Imaging data sets were reconstructed using the manufacturer's software. Display of images utilized Amide software (Dice Holdings, Inc. NY).
# [2] = 48 h + Block (co-injected 200 nmole of 1)
# [3] = plateau followed by one phase decay fit of Table 1 data
compound,measurement,setting,value
CC(CCC(=O)N[C@@H](CC(=O)N[C@@H](CC(=O)N[C@@H](CCCCn1cc(CCCC(=O)Nc2nnc(S(N)(=O)=O)s2)nn1)C(=O)NCCOCCOCCNC(=O)CN1CCN(CC(=O)[O-])CCN(CC(=O)[O-])CCN(CC(=O)[O-])CC1)C(=O)O)C(=O)O)(c1ccc(O)cc1)c1ccc(O)cc1.[111In+3] [[^111In]XYIMSR-01],Tumor/mm (muscle) ratio,SK-RC-52 xenografts; 24 h + Block (co-injected 200 nmole of 1),91.4 ± 11.1
same,tumor/liver ratio,SK-RC-52 xenografts; 24 h post-injection,8.5
same,Biodistribution: Tumor,"SK-RC-52 xenografts; 24 h post-injection, i.v.",25.62 ± 17.67 %ID/g
same,Biodistribution: Bladder,"SK-RC-52 xenografts; 24 h post-injection, i.v.",0.74 ± 0.17 %ID/g
same,Biodistribution: Blood,"SK-RC-52 xenografts; 24 h post-injection, i.v.",0.15 ± 0.02 %ID/g
same,Biodistribution: Brain,"SK-RC-52 xenografts; 24 h post-injection, i.v.",0.71 ± 0.85 %ID/g
same,Biodistribution: Fat,"SK-RC-52 xenografts; 24 h post-injection, i.v.",0.28 ± 0.19 %ID/g
same,Biodistribution: Heart,"SK-RC-52 xenografts; 24 h post-injection, i.v.",1.16 ± 0.20 %ID/g
same,Biodistribution: Kidney (kid),"SK-RC-52 xenografts; 24 h post-injection, i.v.",15.29 ± 1.69 %ID/g
same,Biodistribution: Liver,"SK-RC-52 xenografts; 24 h post-injection, i.v.",3.02 ± 3.46 %ID/g
same,Biodistribution: Lung,"SK-RC-52 xenografts; 24 h post-injection, i.v.",11.01 ± 3.71 %ID/g
same,Biodistribution: Muscle (mm),"SK-RC-52 xenografts; 24 h post-injection, i.v.",0.35 ± 0.12 %ID/g
same,Biodistribution: Pancreas,"SK-RC-52 xenografts; 24 h post-injection, i.v.",0.69 ± 0.18 %ID/g
same,Biodistribution: Sm. intestine,"SK-RC-52 xenografts; 24 h post-injection, i.v.",2.11 ± 0.33 %ID/g
same,Biodistribution: Spleen,"SK-RC-52 xenografts; 24 h post-injection, i.v.",0.69 ± 0.39 %ID/g
same,Biodistribution: Stomach,"SK-RC-52 xenografts; 24 h post-injection, i.v.",3.31 ± 1.25 %ID/g
same,Tumor/blood ratio,SK-RC-52 xenografts; 24 h post-injection,178 and 178.1 ± 145.4
same,Tumor/kid (kidney) ratio,SK-RC-52 xenografts; 24 h post-injection,1.7 and 1.7 ± 1.2
same,Tumor/mm (muscle) ratio,SK-RC-52 xenografts; 24 h post-injection,68 and 68.4 ± 29.0
same,Biodistribution: Tumor,SK-RC-52 xenografts; [2],1 %ID/g and 1.22 ± 0.54 %ID/g
same,Biodistribution: Bladder,SK-RC-52 xenografts; [2],0.14 ± 0.03 %ID/g
same,Biodistribution: Blood,SK-RC-52 xenografts; [2],0.03 ± 0.00 %ID/g
same,Biodistribution: Fat,SK-RC-52 xenografts; [2],0.03 ± 0.01 %ID/g
same,Biodistribution: Heart,SK-RC-52 xenografts; [2],0.04 ± 0.01 %ID/g
same,Biodistribution: Kidney (kid),SK-RC-52 xenografts; [2],0.45 ± 0.09 %ID/g
same,Biodistribution: Liver,SK-RC-52 xenografts; [2],0.13 ± 0.04 %ID/g
same,Biodistribution: Lung,SK-RC-52 xenografts; [2],0.09 ± 0.02 %ID/g
same,Biodistribution: Muscle (mm),SK-RC-52 xenografts; [2],0.02 ± 0.00 %ID/g
same,Biodistribution: Pancreas,SK-RC-52 xenografts; [2],0.03 ± 0.01 %ID/g
same,Biodistribution: Sm. intestine,SK-RC-52 xenografts; [2],0.08 ± 0.02 %ID/g
same,Biodistribution: Spleen,SK-RC-52 xenografts; [2],0.11 ± 0.03 %ID/g
same,Biodistribution: Stomach,SK-RC-52 xenografts; [2],0.14 ± 0.03 %ID/g
same,Tumor/blood ratio,SK-RC-52 xenografts; [2],45.4 ± 13.8
same,Tumor/kid (kidney) ratio,SK-RC-52 xenografts; [2],2.7 ± 0.8
same,Tumor/mm (muscle) ratio,SK-RC-52 xenografts; [2],75.1 ± 17.7
same,Biodistribution: Tumor,"SK-RC-52 xenografts; 48 h post-injection, i.v.",13.92 ± 6.67 %ID/g
same,Biodistribution: Bladder,"SK-RC-52 xenografts; 48 h post-injection, i.v.",0.38 ± 0.18 %ID/g
same,Biodistribution: Blood,"SK-RC-52 xenografts; 48 h post-injection, i.v.",0.06 ± 0.02 %ID/g
same,Biodistribution: Brain,"SK-RC-52 xenografts; 48 h post-injection, i.v.",0.41 ± 0.05 %ID/g
same,Biodistribution: Fat,"SK-RC-52 xenografts; 48 h post-injection, i.v.",0.25 ± 0.08 %ID/g
same,Biodistribution: Heart,"SK-RC-52 xenografts; 48 h post-injection, i.v.",0.84 ± 0.16 %ID/g
same,Biodistribution: Kidney (kid),"SK-RC-52 xenografts; 48 h post-injection, i.v.",8.78 ± 1.89 %ID/g
same,Biodistribution: Liver,"SK-RC-52 xenografts; 48 h post-injection, i.v.",1.65 ± 0.26 %ID/g
same,Biodistribution: Lung,"SK-RC-52 xenografts; 48 h post-injection, i.v.",9.22 ± 1.25 %ID/g
same,Biodistribution: Muscle (mm),"SK-RC-52 xenografts; 48 h post-injection, i.v.",0.39 ± 0.28 %ID/g
same,Biodistribution: Pancreas,"SK-RC-52 xenografts; 48 h post-injection, i.v.",0.59 ± 0.18 %ID/g
same,Biodistribution: Sm. intestine,"SK-RC-52 xenografts; 48 h post-injection, i.v.",1.22 ± 0.44 %ID/g
same,Biodistribution: Spleen,"SK-RC-52 xenografts; 48 h post-injection, i.v.",0.67 ± 0.13 %ID/g
same,Biodistribution: Stomach,"SK-RC-52 xenografts; 48 h post-injection, i.v.",1.82 ± 0.43 %ID/g
same,Tumor/blood ratio,SK-RC-52 xenografts; 48 h post-injection,212.0 ± 41.4
same,Tumor/kid (kidney) ratio,SK-RC-52 xenografts; 48 h post-injection,1.5 ± 0.5
same,Tumor/mm (muscle) ratio,SK-RC-52 xenografts; 48 h post-injection,52.0 ± 21.0
same,Calculated biological excretion half-life: Bladder,SK-RC-52 xenografts; [3],3.730 hr
same,Calculated biological excretion half-life: Blood,SK-RC-52 xenografts; [3],3.246 hr
same,Calculated biological excretion half-life: Brain,SK-RC-52 xenografts; [3],3.926 hr
same,Calculated biological excretion half-life: Fat,SK-RC-52 xenografts; [3],1.536 hr
same,Calculated biological excretion half-life: Heart,SK-RC-52 xenografts; [3],3.538 hr
same,Calculated biological excretion half-life: Kidney,SK-RC-52 xenografts; [3],4.344 hr
same,Calculated biological excretion half-life: Liver,SK-RC-52 xenografts; [3],4.243 hr
same,Calculated biological excretion half-life: Lung,SK-RC-52 xenografts; [3],5.602 hr
same,Calculated biological excretion half-life: Muscle,SK-RC-52 xenografts; [3],2.534 hr
same,Calculated biological excretion half-life: Pancreas,SK-RC-52 xenografts; [3],3.179 hr
same,Calculated biological excretion half-life: SK-RC-52 tumor,SK-RC-52 xenografts; [3],12.27 hr
same,Calculated biological excretion half-life: Small intestine,SK-RC-52 xenografts; [3],5.597 hr
same,Calculated biological excretion half-life: Stomach,SK-RC-52 xenografts; [3],3.908 hr
same,retention of radioactivity seen by SPECT/CT at late time points (in words),[1]; 24-48 h post-injection,"nearly all of the radioactivity in the kidneys and other organs had been eliminated, with tumor still retaining significant amounts of radiotracer; also recorded: Retention of radioactivity was exclusively observed in tumors by 48 h"
same,tumor uptake seen by SPECT/CT (in words),[1]; two mice,radiotracer uptake was observed within the tumors at 1 h post-injection; also recorded: radiotracer uptake in tumor as early as 1 h post-injection
